Tests used:
Assay type in all cases: cell-based, murine
[1] = test system: differentiated 3T3-L1 (WT) cells; conditions: mouse
Method: Cell Viability: 3T3-L1 cells were seeded and differentiated in white, clear bottom, 384-well plates (Corning®). Following differentiation, adipocytes were treated for 24, 48 or 72 hr with varying concentrations of AZD3965 ranging from 0.1 nM to 10 µM. Following the indicated incubation period, cells were assayed with CytoTox-Glo™ (Promega®) according the manufacturer's instructions to assess cell toxicity. Briefly, this assay is a luminescent cytotoxicity kit that measures the relative number of dead cells in a population through the addition of a cell impermeant luminogenic substrate which luminesces in the presence of ‘dead-cell protease’, a protein released from membrane-compromised, dead cells. Luminescence was read on a spectrophotometer (FlexStation 3; Molecular Devices). The data generated were normalized by dividing the relative luminescence units (RLU) collected for each experimental condition by the average RLU of ‘basal’ untreated cells considered to be 100% viable.

[2] = test system: differentiated 3T3-L1 adipocytes; assay: Intracellular lactate (Lactate-Glo); conditions: 1 μM
Method: Intracellular Lactate: Intracellular lactate was measured using the Lactate-Glo™ Assay Kit (Promega®) according to the manufacturer's instructions. 3T3-L1 cells were seeded and differentiated in white clear bottom 96-well plates (Corning®). After differentiation, cells were treated with compound or vehicle as indicated. Following 15 min, 30 min, 1 hr, 4 hr, 8 hr or 24 hr incubation with […] AZD6965, media was removed, and cells were lysed. Lysates were then subjected to a proprietary enzymatic reaction coupling lactate oxidation and NADH production with a bioluminescent detection system supplied by the Lactate-Glo™ Assay kit, and luminescence was read on a spectrophotometer (FlexStation 3; Molecular Devices). The data generated were normalized by dividing the relative luminescence units (RLU) collected for each experimental condition by the average RLU of vehicle control.

[3] = test system: differentiated 3T3-L1 (WT) cells; assay: Oil Red O staining of fully differentiated adipocytes; conditions: 1 μM, 24 hr, 48 hr or 72 hr
Method: (§1) Differentiation Protocol: The 3T3-L1 differentiation protocol was adapted from Green and Meuth (1974) (Zebisch, K, et al. Anal. Biochem. 2012 425:88-90; Green, H, et al. Cell 1974 3:127-133). Cells were seeded at approximately 80% confluency and allowed to reach confluency prior to induction of differentiation. 1-2 days post confluency, growth media was changed to ‘day 0’ media consisting of media supplemented with 0.5 mM 1-methyl-3-isobutyl xanthine (IBMX), 1 µM dexamethasone, and 10 μg/mL insulin. On ‘day 3’ media was changed to growth media with 10 μg/mL insulin only, and on ‘day 6’ media was replaced with normal growth media. After day 6, the complete media was refreshed every 2 days. Using Oil Red O staining, RT-qPCR and immunoblotting, it was determined that 3T3-L1 cells were fully differentiated into lipid-laden adipocytes by ‘day 8’ of the protocol, as reported by others (Petersen, C, et al. Sci. Rep. 2017 7:13101; Mangum, L H, et al. Toxicol. Lett. 2015 238:65-71). All differentiation experiments were performed on cells between passage 4 and 6 to ensure differentiation efficiency was consistent. Oil Red O Staining: Cells were then fixed with 4% PFA for 10 minutes. […] 10× images of cells were taken from randomized fields of view with the Cytation 5 Cell Imaging Multi-Mode reader (BioTek Instruments). Lipid content was also quantified on the Cytation 5.

[4] = test system: differentiated 3T3-L1 (WT) cells; assay: Glucose uptake (Glucose Uptake-Glo) in WT adipocytes; conditions: for insulin-stimulated glucose uptake: then 175 nM insulin 30 minutes
Method: Glucose Uptake: 3T3-L1 cells were seeded and differentiated in clear bottom 96-well plates (Corning®). After differentiation, cells were treated with or without […] AZD3965 for 24 hr, 48 hr or 72 hr as illustrated in FIG. 7 (schematic outline of experimental procedure). The cells were incubated in serum free media the night before performing the assay. The following day/morning, media was changed to serum and glucose free media for 2 hr prior to the experiment. Cells were then stimulated with 175 nM Insulin or vehicle (PBS) for 30 minutes. Glucose Uptake was measured using the Glucose Uptake-Glo™ Assay (Promega®) according to the manufacturer's protocol. The data generated were normalized by dividing the relative luminescence units (RLU) measured in insulin stimulated wells by vehicle treated controls. The aforementioned experiment was repeated in the presence of the CDK1 inhibitor, RO-3306 (10 μM), where indicated (FIG. 5C).

3T3-L1 cells = assay: Oil Red O staining of lipid during preadipocyte differentiation; conditions: differentiated in the presence of 1 μM AZD3965, vs control 3T3-L1
Method: as §1

[5] = test system: differentiated 3T3-L1 adipocytes; assay: Intracellular pyruvate (Amplite fluorimetric assay); conditions: 1 μM
Method: Intracellular Pyruvate: Intracellular pyruvate was measured using the Amplite™ Fluorimetric Pyruvate Assay Kit (AAT Bioquest) according to the manufacturer's instructions. 3T3-L1 cells were seeded and differentiated in white clear bottom 96-well plates (Corning®). After differentiation, cells were treated with compound or vehicle as indicated. Following 15 min, 30 min, 1 hr, 4 hr, 8 hr or 24 hr incubation with 1 μM AZD6965, media was removed, and cells were lysed with ReadiUse™ mammalian cell lysis buffer (AAT Bioquest). Lysates were then subjected to an enzyme-coupled reaction with the Quest Fluor™ Pyruvate Sensor resulting in an […] detected at 575 nm which is proportional to the quantity of pyruvate within the sample. Absorbance was read on a spectrophotometer (FlexStation 3; Molecular Devices).

## Cc1[nH]nc(C(F)(F)F)c1Cc1sc2c(c1C(=O)N1C[C@](C)(O)CO1)c(=O)n(C)c(=O)n2C(C)C [AZD3965, 5-[[(4S)-4-hydroxy-4-methyl-2-isoxazolidinyl]carbonyl]-3-methyl-1-(1-methylethyl)-6-[[5-methyl-3-(trifluoromethyl)-1H-pyrazol-4-yl]methyl]-thieno[2,3-d]pyrimidine-2,4 (1H, 3H)-dione]
[1]
  cytotoxicity / cell viability: not due to AZD3965-induced cytotoxicity
[2]; after 24 hr
  intracellular lactate levels relative to basal: approximately 2 fold
[2]; within 15 minutes, maintained through first 4 hr
  intracellular lactate: significant increase
[3]
  lipid content (Oil Red O staining) of differentiated adipocytes: progressive decrease in lipid content
[4]; 1 μM for 24 hr
  insulin-stimulated glucose uptake: did not reach statistical significance
[4]; 1 μM for 48 hr and 72 hr
  insulin-stimulated glucose uptake: significant increase
[4]; 1 μM, 24-72 hr
  basal, non-insulin stimulated glucose uptake: no impact
3T3-L1 cells
  lipid content (Oil Red O staining) over the course of differentiation: significantly less lipid
[5]; after 24 hr
  intracellular pyruvate levels: not significantly altered
[5]; first 8 hr of treatment
  intracellular pyruvate: significant increase

Source: patent publication US12491187B2, “Use of MCT1 inhibitors to enhance insulin sensitivity” (H. LEE MOFFIT CANCER CENTER AND RESEARCH INSTITUTE, INC., priority 2022, dated 2025)
